Patent US7960439B1, “Environmentally sensitive foldable oligomers” (Iowa State University Research Foundation, Inc., priority 2006, dated 2011)

Tests used:
[1] = Fluorescence quenching of NBD-labeled cholate oligomers by hydrophilic quencher 11; type: binding
Description: Fluorescence Quenching of the NBD-Labeled Cholate Oligomers 1-4: Typical procedures for the quenching experiment are as follows. Stock solutions (1.0×10^−3 M) of 1-4 in anhydrous THF were prepared. An aliquot (25.0 μL) of the stock solution was diluted by 2.00 mL of carbon tetrachloride with 5 vol. % DMSO in a quartz cuvet. Aliquots (5.0 μL, 0.8 M) of the quencher (11 or 12) in THF were added with a Hamilton Gastight syringe. After each addition, the sample was vortexed for 1 minute before the fluorescence spectrum was recorded. The excitation wavelength was set at 336 nm and the maximum emission intensity at 527 nm was monitored.

[2] = Solvent denaturation of donor-acceptor labeled cholate oligomers followed by FRET (two-state model); type: physicochemical; settings: for m (in parentheses) / ΔG0 (in parentheses): linear fitting of unfolding free energies (FIG. 12); for m / ΔG0: nonlinear least-squares fitting to two-state model (FIG. 11)
Excerpt: According to the two-state model, at any given concentration of the denaturant (i.e., DMSO), only the folded and unfolded conformations are present and their fractions are represented by fF and fU. Fraction of the unfolded conformation can be calculated by: fU=(IF−I)/(IF−IU) (2) in which I is the observed emission intensity of the acceptor in a given foldamer, IF is the emission intensity of the acceptor in the fully folded conformer, and IU is the emission intensity of the acceptor in the fully unfolded conformer. The equilibrium constant (Keq) and the free energy (ΔG) for the folding reaction can be calculated using ΔG=RT ln Keq=−RT ln(fU/fF)=−RT ln [fU/(1−fU)] (3)
In order to calculate fractions of the unfolded conformations, both IF and IU must be known for different foldamers. The emission intensity of the acceptor in the 1:1 mixture of the monomer A 8 (MA) and monomer D 9(MD) should be good approximations for IU since the emission intensity of the longer foldamers (e.g., pentamer-DA 5 (PDA)) does converge to that of the (MA+MD) mixture upon unfolding. The value of IF, on the other hand, cannot be obtained directly because none of the three foldamers seem to be fully folded under the initial condition of 1% DMSO.
In general, to obtain the values of IF for PDA, hexamer-DA 6 (HXDA), and heptamer-DA 7 (HPDA), it is useful to first make an assumption for fU (e.g., fU=0.1 for the HPDA) in 1% DMSO and use it to calculate the corresponding value of IF, which is designated IF(1). Using IF(1), the first set of fU(1) can be calculated at different DMSO percentages according to equation 2. In the two-state model, the free energies are linearly related to the concentration of denaturant (i.e., DMSO): ΔG=ΔG0−m[DMSO] (4) in which ΔG0 is the free energy for the folding reaction in the absence of denaturant and m measures how sensitive the folding equilibrium is toward DMSO percentage. From equations 2, 3, and 4, the following equation 5 can be obtained, where equation 5 describes the relationship between fU and DMSO percentage: fU=1/{1+1/exp[−(ΔG0−m[DMSO])/RT]} (5)
As a result, the initial values of ΔG0 and m (which are designated as ΔG0(1) and m1) can be obtained by nonlinear least-squares fitting to the first set of fU(1). The resulting ΔG0(1) and m1 are used to calculate the refined value of IF(2) using equations 5 and 2. This process is repeated as long as there is a fairly large difference between the entering IF(n) value and the resulting IF(n+1) value. In general, fitting of the data improves over several rounds of refinement. The refinement is stopped in the end when the values of IF(n) and IF(n+1) are within 1% of each other and are taken as the final value of IF.
In such data processing, it is assumed that IF was independent of DMSO percentage. Such an assumption is expected to underestimate the stability of the cholate foldamers. This is because the emission of MA is shown to be slightly quenched by DMSO—the emission intensity decreases by about 20% over 1-5% DMSO.
FRET Study of the Donor-Acceptor Labeled Cholate Oligomers 5-9 Stock solutions (2.0×10^−4M) of 5-9 in anhydrous THF were prepared. An aliquot (20.0 μL) of the stock solution was diluted by (a) 2.00 mL of ethyl acetate/hexane (v/v=1.05/2) with 1 vol. % DMSO and (b) […] 2.00 mL of ethyl acetate/hexane (v/v=1/1) with 1 vol. % DMSO in a quartz cuvet. Ten aliquots of DMSO (10.0 μL each) were added to the sample. After each addition, the sample was vortexed for 1 minute before the fluorescence spectrum was recorded. The excitation wavelength was set at 287 nm.

[3] = DMSO in ethyl acetate/hexane (1/1)
[4] = DMSO in ethyl acetate/hexane (1/2)

COC(=O)CCC(C)C1CCC2C3C(O)CC4CC(NC(=O)CCC(C)C5CCC6C7C(O)CC8CC(NC(=O)CCC(C)C9CCC%10C%11C(O)CC%12CC(NC(=O)CCC(C)C%13CCC%14C%15C(O)CC%16CC(NC(=O)CCC(C)C%17CCC%18C%19C(O)CC%20CC(NC(=O)CCC(C)C%21CCC%22C%23C(O)CC%24CC(NC(=O)CCC(C)C%25CCC%26C%27C(O)CC%28CC(Nc%29ccc([N+](=O)[O-])c%30nonc%29%30)CCC%28(C)C%27CC(O)C%25%26C)CCC%24(C)C%23CC(O)C%21%22C)CCC%20(C)C%19CC(O)C%17%18C)CCC%16(C)C%15CC(O)C%13%14C)CCC%12(C)C%11CC(O)C9%10C)CCC8(C)C7CC(O)C56C)CCC4(C)C3CC(O)C12C (stereo not shown) [Compound 4]
reduction of fluorescence by quencher 11 ([1]; 5.6 mM of 11 in 2% methanol/CCl4): 60 fold
reduction of fluorescence by quencher 11 ([1]; 5.6 mM of 11 in 5% DMSO/CCl4): < 3 fold

CC(CCC(=O)Nc1cccc2ccccc12)C1CCC2C3C(O)CC4CC(NC(=O)CCC(C)C5CCC6C7C(O)CC8CC(NC(=O)CCC(C)C9CCC%10C%11C(O)CC%12CC(NC(=O)CCC(C)C%13CCC%14C%15C(O)CC%16CC(NC(=O)CCC(C)C%17CCC%18C%19C(O)CC%20CC(NC(=O)CCC(C)C%21CCC%22C%23C(O)CC%24CC(NS(=O)(=O)c%25cccc%26c(N(C)C)cccc%25%26)CCC%24(C)C%23CC(O)C%21%22C)CCC%20(C)C%19CC(O)C%17%18C)CCC%16(C)C%15CC(O)C%13%14C)CCC%12(C)C%11CC(O)C9%10C)CCC8(C)C7CC(O)C56C)CCC4(C)C3CC(O)C12C (stereo not shown) [Compound 6]
m (in parentheses) [2, 3]: 0.89 kcal/mol
ΔG0 (in parentheses) [2, 3]: 1.9 kcal/mol
m [2, 3]: 0.81 ± 0.06 kcal/mol
ΔG0 [2, 3]: 1.8 ± 0.1 kcal/mol
m (in parentheses) [2, 4]: 0.52 kcal/mol
ΔG0 (in parentheses) [2, 4]: 1.8 kcal/mol
m [2, 4]: 0.50 ± 0.02 kcal/mol
ΔG0 [2, 4]: 1.7 ± 0.1 kcal/mol
